The text below walks through data of PubChem BioAssay (NCI).

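These data come from cells grown in 96-well plates and exposed to compound for 48 hours at five concentrations. GI50 marks 50% less growth. TGI: total growth inhibition.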 Some results are limits rather than exact numbers.

Common to all, as to test: inhibition of tumour cell growth, NCI panel, 48 h
The subject of assay [1] is HCC-2998 colon.
For assay [2], the system named is RXF 393 renal.
In assay [3] the test system is SK-MEL-2 melanoma.
In assay [4] the test system is M14 melanoma.
Assay [5] deals with OVCAR-5 ovarian.
Assay [6] has as its system SK-MEL-5 melanoma.
The subject of assay [7] is SK-OV-3 ovarian.
The test system of assay [8] is T-47D breast.
In assay [9] the test system is NCI-H23 lung.
For assay [10], the system named is EKVX NSCLC.

In the case of `CC(C)C[C@H](NC(=O)[C@@H](Cc1ccccc1)n1ccc(Nc2ccccc2)cc1=O)B(O)O`, the GI50 in assay [1] is 0.353 µM; in assay [2], 0.234 µM; in assay [3] it was 0.316 µM; in assay [4] it was 0.278 µM; in assay [5], 1.7 µM; in assay [6], 0.321 µM. In addition, the results for the GI50 in assay [7], in assay [8] and in [9] were 0.653 µM, 0.413 µM and 0.835 µM, respectively. The TGI turned out to be 1.36 µM in [1]; 0.564 µM in assay [2]; 1.59 µM in assay [3]; 1.91 µM in assay [4]; 8.34 µM in assay [5]; 1.14 µM in assay [6]. Moreover, the TGI was found to be 18.8 µM in assay [7], 3.97 µM in assay [8] and 19.4 µM in assay [9].

Take `COc1ccc(-c2cc(=O)c3c(OC)c4ccoc4c(/C=C/C=O)c3o2)cc1`: the GI50 in assay [1] was 13.7 µM; in assay [2], 2.15 µM; in assay [3], 9.06 µM; in [4], 2.24 µM; in [5], 11.7 µM; in assay [6] it was 1.69 µM. In addition, the GI50 in assay [7] is 4.73 µM; in assay [8], 2.03 µM; in [9], 2.8 µM. Further, the TGI amounted to 27.8 µM in assay [1]; 4.49 µM in assay [2]; 84.6 µM in [3]; 7.56 µM in [4]; 46.8 µM in [5]; 3.51 µM in assay [6]. Further, the TGI is 23 µM in assay [7], > 100 µM in [8] and 13 µM in [9].

Turning to `CC(=O)Oc1ccc(C2OC(c3ccc4ccccc4c3OC(C)=O)=NN2C(C)=O)c(OC(C)=O)c1` (stereo unspecified), the GI50 is 0.427 µM in assay [1]; 0.432 µM in [2]; 0.602 µM in [3]; 0.368 µM in assay [4]; 2.22 µM in assay [5]; 0.321 µM in [6]. The results for the GI50 in assay [7], in assay [8] and in assay [9] were 0.675 µM, 0.664 µM and 1.28 µM, respectively. For the same compound, the TGI in assay [1] is 29 µM; in assay [2] it was 16.3 µM; in assay [3], > 48.7 µM; in assay [4], > 45.6 µM; in assay [5], > 100 µM; in [6], > 32.3 µM. Further, the TGI in assay [7] is > 52.3 µM; in [8], > 52.6 µM; in assay [9], 97.4 µM.

Turning to `O=C(CCN1CCCCC1)c1csc2ccccc12`, the TGI in [2], in assay [10], in [3], in [4], in [5] and in assay [6] was > 100 µM in each case. Moreover, the TGI in [7], in assay [8] and in [9] was > 100 µM in each case.

Consider `COc1ccc(OC)c(C2=C(c3cn(C)c4ccccc34)C(=O)NC2=O)c1`, for which the GI50 in assay [1], in assay [2], in assay [3], in [4], in [5] and in assay [6] was > 25 µM in each case. The GI50 in [7], in assay [8] and in assay [9] was > 25 µM each time. The TGI in assay [1], in assay [2], in [3], in [4], in [5] and in assay [6] was > 25 µM in each case. The TGI in assay [7], in assay [8] and in [9] was > 25 µM each time.

`Nc1c(C(=O)Nc2cccc(Cl)c2)sc2nc3c(cc12)C(O)CCC3` (stereo unspecified): the GI50 was 2.39 µM in assay [1]; 0.396 µM in [2]; 0.585 µM in assay [3]; 0.367 µM in [4]; 2.89 µM in [5]; 0.375 µM in assay [6]. Further, the figures for the GI50 in assay [7], in [8] and in assay [9] were 0.534 µM, 0.463 µM and 0.711 µM, respectively. Besides, the TGI in assay [1] was 25.7 µM; in [2] it was 2.87 µM; in assay [3] it was 48.6 µM; in assay [4] it was > 49.7 µM; in assay [5] it was 33.9 µM; in assay [6], 18.3 µM. The TGI was 22.2 µM in [7], 53.2 µM in [8] and > 100 µM in assay [9].

Turning to `CCN1CCN(Cc2ccc(Nc3ncc(F)c(-c4cc(F)c5nc(C)n(C(C)C)c5c4)n3)nc2)CC1`, the GI50 in assay [1] was 5.35 µM; in [2] it was 0.389 µM; in assay [3], > 50 µM; in [4], 3.6 µM; in [5], 8.53 µM; in assay [6], 0.392 µM. In addition, the GI50 was 3.22 µM in [7], 19.3 µM in [8] and 3.26 µM in [9]. The TGI is 11.5 µM in assay [1]; 8.34 µM in assay [2]; > 50 µM in assay [3]; 11.5 µM in [4]; 50 µM in assay [5]; 10.3 µM in [6]. For the same compound, the values for the TGI in assay [7], in [8] and in assay [9] were 11.7 µM, 29 µM and 15.2 µM, respectively.

With `CCCCCOC(=O)Nc1nc(=O)n(C2OC(C)C(O)C2O)cc1F` (stereo unspecified), the GI50 is 271 µM in [1]; > 10000 µM in assay [3]; > 10000 µM in assay [4]; > 10000 µM in assay [5]; 338 µM in assay [6]; > 10000 µM in [7]. Moreover, the GI50 in assay [8] was > 10000 µM. The TGI in assay [1], in assay [3], in assay [4], in assay [5], in assay [6] and in assay [7] was > 10000 µM throughout. In addition, the TGI in assay [8] was > 10000 µM.
